Test [1] concerns the target T1, Proteinase-activated receptor 1 (Homo sapiens, UniProt P25116).
T1 sequence (P25116 whole entry): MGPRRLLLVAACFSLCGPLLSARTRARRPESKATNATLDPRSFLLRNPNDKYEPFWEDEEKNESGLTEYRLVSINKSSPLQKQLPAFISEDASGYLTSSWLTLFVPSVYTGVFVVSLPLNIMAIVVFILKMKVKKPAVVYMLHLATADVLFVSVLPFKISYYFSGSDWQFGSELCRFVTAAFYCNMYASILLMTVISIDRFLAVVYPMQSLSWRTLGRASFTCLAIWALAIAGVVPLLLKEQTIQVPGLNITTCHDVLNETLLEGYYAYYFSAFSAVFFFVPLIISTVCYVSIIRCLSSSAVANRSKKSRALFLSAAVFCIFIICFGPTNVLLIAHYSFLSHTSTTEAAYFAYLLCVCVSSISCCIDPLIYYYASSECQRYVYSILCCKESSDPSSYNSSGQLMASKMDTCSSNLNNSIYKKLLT
Kind of test: Antagonistic activity against thrombin receptor, inhibition of secreted radiolabeled [3H]5-HT from washed human platelets stimulated by 3 uM thrombin receptor activating peptide (TRAP). Format: functional.

The target in test [2] is T1, Proteinase-activated receptor 1. Kind of test: Inhibition of secretion of radiolabeled serotonin from washed human platelets stimulated by 1 nM thrombin. The class given is functional.
The target is the same in test [3]. Kind of test: Displacement of [3H]SFFLRR-NH2 from human thrombin receptor PAR-1. In general terms: In a radioligand displacement assay an active substance lowers the binding of a labelled ligand.
The next test addresses Prothrombin (Homo sapiens, UniProt P00734). The experiment in a line: Compound was tested for thrombin catalytic activity; no inhibition was observed.
For test [4], the target named is T2, Proteinase-activated receptor 1 (Homo sapiens) (UniProt P25116).
T2 sequence (whole entry): T1 sequence (P25116 whole entry)
The experiment in a line: Inhibition of secretion of radiolabeled concentration. As to conditions: concentration not given here. Format: functional.

In general, IC50 refers to the concentration needed to halve the response being measured. A low value points to inhibition by little substance. In the case of `COc1cccc(CN(CCCC2CCCCC2)c2cc(-c3ccccc3)no2)c1`, in test [1], the IC50 was greater than 10000 nM.

As for `COc1cccc(-c2cc(N(CCCN3CCCCCC3)Cc3ccc4c(c3)OCO4)on2)c1`, the IC50 in test [2] came out at 2240 nM; in test [1], 130 nM; in test [3] it was 260 nM. The corresponding values for `N#Cc1cccc(-c2cc(N(CCCN3CCCCCC3)Cc3ccc4c(c3)OCO4)on2)c1` are 1970 nM, 350 nM and 600 nM. Take `c1ccc(-c2cccc(-c3cc(N(CCCN4CCCCCC4)Cc4ccc5c(c4)OCO5)on3)c2)cc1`: in test [1], half-maximal inhibition (IC50) was put at 6420 nM. Consider `COc1cccc(CN(CCCN2CCCCCCC2)c2cc(-c3ccccc3)no2)c1`, for which the IC50 in test [1] is greater than 10000 nM. On the same count and under the same terms, as for `CC(C)N(CC(O)c1ccc(C#N)cc1)C(=O)Nc1ccccc1` (centres undefined), the figure is 12000 nM; as for `c1ccc(-c2cc(N(CCCN3CCCCC3)Cc3ccc4c(c3)OCO4)on2)cc1`, 600 nM.

In the case of `CCCCN(CCCN1CCCCC1)c1cc(-c2ccccc2)no1`, the IC50 in test [1] is greater than 40000 nM. Take `COc1ccc(-c2cc(N(CCCN3CCCCCC3)Cc3ccc4c(c3)OCO4)on2)cc1F`: the IC50 turned out to be 2140 nM in test [2] and 70 nM in test [1].

Take `Clc1cccc(-c2cc(N(CCCN3CCCCCC3)Cc3ccc4c(c3)OCO4)on2)c1`: the IC50 in test [2] amounted to 910 nM; in test [1] it was 270 nM; in test [3], 1160 nM. The corresponding values for `O=[N+]([O-])c1cccc(-c2cc(N(CCCN3CCCCCC3)Cc3ccc4c(c3)OCO4)[o+][n-]2)c1` are greater than 10000 nM, 830 nM and 1020 nM. For the molecule `c1ccc(-c2cc(N(CCCN3CCCCC3)Cc3cccc4ccccc34)on2)cc1`, the IC50 in test [1] is 500 nM. In test [1], `COc1cccc(CN(CCCN2CCC2)c2cc(-c3ccccc3)no2)c1` showed an IC50 greater than 10000 nM.

On to `Clc1ccccc1-c1cc(N(CCCN2CCCCCC2)Cc2ccc3c(c2)OCO3)on1`, for which, in test [1], the IC50 was 2990 nM. For `Fc1cccc(-c2cc(N(CCCN3CCCCCC3)Cc3ccc4c(c3)OCO4)on2)c1`, the values for the IC50 in test [2], in test [1] and in test [3] were 1180 nM, 140 nM and 770 nM, respectively. Regarding `c1ccc(-c2cc(N(CCCCN3CCCCCC3)Cc3cccc4ccccc34)on2)cc1`, in test [1], 5000 nM corresponded to half-maximal inhibition (IC50). Still for that read-out and setting: as for `COc1cccc(CN(CCCN2CCCCC2)c2cc(-c3ccccc3)no2)c1`, the figure is 1600 nM. On the same count and under the same terms, in the case of `c1ccc(-c2cc(N(CCN3CCCCCC3)Cc3cccc4ccccc34)on2)cc1` it was 5000 nM. By Ki is commonly meant the dissociation constant of the complex between target and ligand, obtained from inhibition or displacement. A high value points to a looser hold on the target. Molecule `Fc1cc(F)cc(-c2cc(N(CCCN3CCCCCC3)Cc3ccc4c(c3)OCO4)on2)c1` yielded a Ki at Prothrombin greater than 10000 nM. Moreover, the results for the IC50 in test [2], in test [1] and in test [3] were 510 nM, 90 nM and 150 nM, respectively. As usually defined, the inhibition is how much of the control response was suppressed. For `Cc1cccc(-c2cc(N(CCCN3CCCCCC3)Cc3ccc4c(c3)OCO4)on2)c1`, the inhibition in test [4] was found to be 60%. Moreover, the IC50 in test [1] amounted to 120 nM; in test [3] it was 890 nM. On to `COc1cc(OC)cc(-c2cc(N(CCCN3CCCCCC3)Cc3ccc4c(c3)OCO4)on2)c1`, for which the results for the IC50 in test [2], in test [1] and in test [3] were 1200 nM, 130 nM and 520 nM, respectively. In test [1], `c1ccc(CN(CCCN2CCCCC2)c2cc(-c3ccccc3)no2)cc1` gave an IC50 of 9000 nM. Same read-out and setting: as for `c1ccc(-c2cc(N(CCCN3CCCCC3)Cc3ccc4ccccc4c3)on2)cc1`, the figure is 2000 nM. On to `Fc1ccc(-c2cc(N(CCCN3CCCCCC3)Cc3ccc4c(c3)OCO4)on2)cc1`, for which the figures for the IC50 in test [2] and in test [1] were greater than 10000 nM and 1310 nM, respectively.

The molecule `c1ccc(-c2ccc(-c3cc(N(CCCN4CCCCCC4)Cc4ccc5c(c4)OCO5)on3)cc2)cc1` returned an IC50 in test [1] of 4440 nM. In turn, `COc1cccc(CN(CCCN2CCCCCC2)c2cc(-c3ccccc3)no2)c1` registered an IC50 in test [1] of 500 nM. Consider `Clc1ccc(-c2cc(N(CCCN3CCCCCC3)Cc3ccc4c(c3)OCO4)on2)cc1`, for which the IC50 in test [2] worked out at 4250 nM; in test [1], 1240 nM; in test [3], 990 nM. On to `Fc1ccc(-c2cc(N(CCCN3CCCCCC3)Cc3ccc4c(c3)OCO4)on2)cc1F`, for which the IC50 in test [2] is 2400 nM; in test [1] it was 500 nM; in test [3], 2140 nM.

Regarding `Cc1ccccc1-c1cc(N(CCCN2CCCCCC2)Cc2ccc3c(c2)OCO3)on1`, in test [1], the IC50 amounted to 3220 nM.

Consider `CSc1ccc(-c2cc(N(CCCN3CCCCCC3)Cc3ccc4c(c3)OCO4)on2)cc1`, for which the values for the IC50 in test [2] and in test [1] were greater than 4000 nM and 430 nM, respectively. As to `c1ccc(-c2cc(N(CCCN3CCCCCC3)Cc3cccc4ccccc34)on2)cc1`, 360 nM corresponded to half-maximal inhibition in test [1] (IC50).

`Ic1ccc(-c2cc(N(CCCN3CCCCCC3)Cc3ccc4c(c3)OCO4)on2)cc1`: the figures for the IC50 in test [2], in test [1] and in test [3] were 880 nM, 90 nM and 470 nM, respectively. For `COc1ccccc1-c1cc(N(CCCN2CCCCCC2)Cc2ccc3c(c2)OCO3)on1`, the IC50 in test [1] was determined as 2220 nM; in test [3] it was 2210 nM. Molecule `COc1cccc(CN(CCCN2CCCC2)c2cc(-c3ccccc3)no2)c1` registered an IC50 in test [1] of 3300 nM. `COc1ccc(-c2cc(N(CCCN3CCCCCC3)Cc3ccc4c(c3)OCO4)on2)cc1` returned an inhibition in test [4] of 60%. Besides, the values for the IC50 in test [1] and in test [3] were 130 nM and 250 nM, respectively. For the molecule `CS(=O)(=O)c1ccc(-c2cc(N(CCCN3CCCCCC3)Cc3ccc4c(c3)OCO4)on2)cc1`, half-maximal inhibition in test [1] (IC50) was put at 3200 nM. For `Clc1cccc(CN(CCCN2CCCCC2)c2cc(-c3ccccc3)no2)c1`, inhibition in test [1] was half-maximal at 1000 nM (IC50). `C[S+]([O-])c1ccc(-c2cc(N(CCCN3CCCCCC3)Cc3ccc4c(c3)OCO4)on2)cc1` (centres undefined) yielded an IC50 in test [1] of 3700 nM. As to `COc1ccc(-c2cc(N(CCCN3CCCCCC3)Cc3ccc4c(c3)OCO4)on2)cc1OC`, the IC50 in test [2] amounted to 4670 nM; in test [1] it was 400 nM; in test [3] it was 1200 nM. For the molecule `c1ccc(-c2cc(N(CCCN3CCCCC3)CC3CCCCC3)on2)cc1`, the IC50 in test [1] was greater than 10000 nM. Turning to `Cc1ccc(-c2cc(N(CCCN3CCCCCC3)Cc3ccc4c(c3)OCO4)on2)cc1`, the IC50 in test [2] turned out to be 3200 nM; in test [1] it was 140 nM; in test [3], 290 nM.

These data come from ChEMBL document CHEMBL1136056, “Discovery of a nonpeptidic small molecule antagonist of the human platelet thrombin receptor (PAR-1)” (Bioorg Med Chem Lett, 2002).
